Columns and labels:
ASPC-1 cells [1] = assay: Transwell migration assay; assay type: cell-based, human; settings: 24 hr transwell
Procedure: Cells were starved with serum-reduced media for 24 hr, harvested from flasks with trypsin/EDTA, washed with media containing 1% FBS, and resuspended at cell density of 2-5×10^5 cells/ml. 0.2 ml of cells were placed in the upper chamber of transwell (BD Biosciences), with 20% FBS-containing media in the lower well and incubated at 37° C. for 24 hr. Both sides of the transwell contained 4-HAP at the appropriate concentration, with final DMSO concentration at 0.0025%. The transwells were MeOH-fixed and stained with 0.5% crystal violet for 20 min, followed by counting from six random microscopic fields.

[2] = tested on: myosin IIA (phosphor-Ser1943); assay: Western blot of phospho-myosin IIA; assay type: cell-based, human; settings: HPDE or ASPC-1 cells
Procedure: (§1) Pellet was resuspended in 100 μl lysis buffer minus Triton X-100, and both pellet and supernatant fractions were heated to 100° C. for 3 min with RNaseA. Samples were incubated at 37° C. for 30 min and then heated to 100° C. in sample buffer for 5 min. Samples were loaded on a 15% SDS-polyacrylamide gel. Western blot analyses of phospho-myosin IIA was performed on whole cell lysates of cells treated as above in lysate buffer with 10 mM NaF.

ASPC-1 cells [3] = assay: Retrograde actin flow (SiR-actin, lattice light-sheet); assay type: cell-based, human; settings: 500 nM
Procedure: AsPC-1 cells were grown on collagen I-coated (50 μg/ml) 5-mm coverslips for 16 hrs and then treated with 100-nM SiR-Actin (Cytoskeleton, Inc) and […] Verapamil for 4 hrs in Leibovitz L-15 without phenol red media, with or without 4-HAP (500 nM). Coverslips were transferred to the imaging chamber of the Lattice Light-Sheet Microscope (LLSM) (Intelligent Imaging Innovations) containing fresh Leibovitz L-15 media without SiR-Actin and verapamil plus the corresponding 4-HAP concentration. Cells were imaged for 3-5 min at 2-3-sec intervals, 50-150 planes per 3D stack, with a Nikon CFI75 Apochromat 25×/1.1 water-dipping objective. Retrograde actin flow was measured using ImageJ (rsb.info.nih.gov/ij). Datasets were independently analyzed by multiple investigators.

myosin IIB = molecular target: T1, myosin IIB (Homo sapiens, UniProt P35580); assay: Mammalian cell sedimentation assay; assay type: cell-based
T1 construct: endogenous in cells; host or cells: HEK293, HPDE
T1 sequence (P35580 whole entry): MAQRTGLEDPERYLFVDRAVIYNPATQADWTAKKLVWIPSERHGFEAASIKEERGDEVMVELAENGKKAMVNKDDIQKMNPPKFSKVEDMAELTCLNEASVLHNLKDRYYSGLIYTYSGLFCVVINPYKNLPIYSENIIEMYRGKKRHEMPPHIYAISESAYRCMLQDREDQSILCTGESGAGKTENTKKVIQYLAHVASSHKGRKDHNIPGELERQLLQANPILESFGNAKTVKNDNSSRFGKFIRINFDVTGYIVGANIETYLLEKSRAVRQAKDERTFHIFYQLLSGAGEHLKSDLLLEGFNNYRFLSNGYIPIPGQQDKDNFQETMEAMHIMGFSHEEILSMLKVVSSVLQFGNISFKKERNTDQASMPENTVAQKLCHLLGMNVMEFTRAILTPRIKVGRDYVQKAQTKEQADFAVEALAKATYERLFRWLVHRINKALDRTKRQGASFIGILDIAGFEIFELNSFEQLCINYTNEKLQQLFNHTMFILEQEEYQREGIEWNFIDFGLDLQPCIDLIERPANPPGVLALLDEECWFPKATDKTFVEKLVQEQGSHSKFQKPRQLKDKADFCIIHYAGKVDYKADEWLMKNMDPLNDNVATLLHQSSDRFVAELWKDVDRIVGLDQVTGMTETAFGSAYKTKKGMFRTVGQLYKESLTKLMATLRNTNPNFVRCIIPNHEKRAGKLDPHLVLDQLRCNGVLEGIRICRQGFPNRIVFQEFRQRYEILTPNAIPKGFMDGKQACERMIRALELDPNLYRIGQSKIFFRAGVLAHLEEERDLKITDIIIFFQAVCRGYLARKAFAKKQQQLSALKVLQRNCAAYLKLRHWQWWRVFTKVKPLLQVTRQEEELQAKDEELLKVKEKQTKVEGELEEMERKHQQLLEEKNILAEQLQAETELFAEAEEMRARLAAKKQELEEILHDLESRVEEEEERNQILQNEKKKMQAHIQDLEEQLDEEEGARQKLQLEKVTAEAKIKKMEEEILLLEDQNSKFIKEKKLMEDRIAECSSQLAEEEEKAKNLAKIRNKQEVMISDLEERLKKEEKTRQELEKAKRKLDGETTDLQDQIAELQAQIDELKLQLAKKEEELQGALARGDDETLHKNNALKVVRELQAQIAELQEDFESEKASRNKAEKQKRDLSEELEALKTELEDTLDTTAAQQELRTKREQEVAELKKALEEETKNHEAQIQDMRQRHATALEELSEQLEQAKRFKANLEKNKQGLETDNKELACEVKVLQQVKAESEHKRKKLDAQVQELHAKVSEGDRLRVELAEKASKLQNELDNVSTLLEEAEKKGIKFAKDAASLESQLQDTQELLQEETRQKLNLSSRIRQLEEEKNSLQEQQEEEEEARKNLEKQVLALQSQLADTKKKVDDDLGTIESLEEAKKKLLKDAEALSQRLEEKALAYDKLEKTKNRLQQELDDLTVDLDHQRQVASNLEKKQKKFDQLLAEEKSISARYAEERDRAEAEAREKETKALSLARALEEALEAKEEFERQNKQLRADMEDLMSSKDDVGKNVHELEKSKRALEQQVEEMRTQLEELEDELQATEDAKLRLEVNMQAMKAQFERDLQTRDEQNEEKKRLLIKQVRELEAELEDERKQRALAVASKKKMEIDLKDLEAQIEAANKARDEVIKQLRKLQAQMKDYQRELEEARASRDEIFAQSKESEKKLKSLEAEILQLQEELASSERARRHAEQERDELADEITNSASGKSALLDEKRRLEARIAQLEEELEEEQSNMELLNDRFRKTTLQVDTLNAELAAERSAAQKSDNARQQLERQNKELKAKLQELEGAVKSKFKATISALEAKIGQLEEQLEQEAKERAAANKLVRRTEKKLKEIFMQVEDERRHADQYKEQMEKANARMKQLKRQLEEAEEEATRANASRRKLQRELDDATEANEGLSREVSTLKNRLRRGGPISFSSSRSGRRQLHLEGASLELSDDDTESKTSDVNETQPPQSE
Procedure: Sedimentation protocol was adapted from the protocol above. 3×10^6 cells were pelleted for 5 min at 2000 rpm and washed in 1 ml PBS. The pellet was resuspended in 100 μl lysis buffer (50 mM PIPES, pH 6.8, 46 mM NaCl, 2.5 mM EGTA, 1 mM MgCl2, 1 mM ATP, 0.5% Triton X-100, and protease inhibitors—PI cocktail, PMSF, TLCK, Aprotinin). Samples were vortexed briefly and incubated on ice for 20 min, followed by centrifugation at 15,000 g for 5 min at 4° C.
as §1

myosin II [4] = molecular target: T2, myosin II (Dictyostelium discoideum, UniProt P08799, T1823A/T1833A/T2029A); assay: Myosin II cortical localization by SIM, TIRF and confocal imaging; assay type: cell-based; settings: myoII null cells, 500 nM, 10 minutes post-treatment
T2 construct: expressed in transfected cells; host or cells: Dictyostelium discoideum myoII null cells rescued with GFP-myosin II
T2 sequence (P08799 whole entry T1823A/T1833A/T2029A): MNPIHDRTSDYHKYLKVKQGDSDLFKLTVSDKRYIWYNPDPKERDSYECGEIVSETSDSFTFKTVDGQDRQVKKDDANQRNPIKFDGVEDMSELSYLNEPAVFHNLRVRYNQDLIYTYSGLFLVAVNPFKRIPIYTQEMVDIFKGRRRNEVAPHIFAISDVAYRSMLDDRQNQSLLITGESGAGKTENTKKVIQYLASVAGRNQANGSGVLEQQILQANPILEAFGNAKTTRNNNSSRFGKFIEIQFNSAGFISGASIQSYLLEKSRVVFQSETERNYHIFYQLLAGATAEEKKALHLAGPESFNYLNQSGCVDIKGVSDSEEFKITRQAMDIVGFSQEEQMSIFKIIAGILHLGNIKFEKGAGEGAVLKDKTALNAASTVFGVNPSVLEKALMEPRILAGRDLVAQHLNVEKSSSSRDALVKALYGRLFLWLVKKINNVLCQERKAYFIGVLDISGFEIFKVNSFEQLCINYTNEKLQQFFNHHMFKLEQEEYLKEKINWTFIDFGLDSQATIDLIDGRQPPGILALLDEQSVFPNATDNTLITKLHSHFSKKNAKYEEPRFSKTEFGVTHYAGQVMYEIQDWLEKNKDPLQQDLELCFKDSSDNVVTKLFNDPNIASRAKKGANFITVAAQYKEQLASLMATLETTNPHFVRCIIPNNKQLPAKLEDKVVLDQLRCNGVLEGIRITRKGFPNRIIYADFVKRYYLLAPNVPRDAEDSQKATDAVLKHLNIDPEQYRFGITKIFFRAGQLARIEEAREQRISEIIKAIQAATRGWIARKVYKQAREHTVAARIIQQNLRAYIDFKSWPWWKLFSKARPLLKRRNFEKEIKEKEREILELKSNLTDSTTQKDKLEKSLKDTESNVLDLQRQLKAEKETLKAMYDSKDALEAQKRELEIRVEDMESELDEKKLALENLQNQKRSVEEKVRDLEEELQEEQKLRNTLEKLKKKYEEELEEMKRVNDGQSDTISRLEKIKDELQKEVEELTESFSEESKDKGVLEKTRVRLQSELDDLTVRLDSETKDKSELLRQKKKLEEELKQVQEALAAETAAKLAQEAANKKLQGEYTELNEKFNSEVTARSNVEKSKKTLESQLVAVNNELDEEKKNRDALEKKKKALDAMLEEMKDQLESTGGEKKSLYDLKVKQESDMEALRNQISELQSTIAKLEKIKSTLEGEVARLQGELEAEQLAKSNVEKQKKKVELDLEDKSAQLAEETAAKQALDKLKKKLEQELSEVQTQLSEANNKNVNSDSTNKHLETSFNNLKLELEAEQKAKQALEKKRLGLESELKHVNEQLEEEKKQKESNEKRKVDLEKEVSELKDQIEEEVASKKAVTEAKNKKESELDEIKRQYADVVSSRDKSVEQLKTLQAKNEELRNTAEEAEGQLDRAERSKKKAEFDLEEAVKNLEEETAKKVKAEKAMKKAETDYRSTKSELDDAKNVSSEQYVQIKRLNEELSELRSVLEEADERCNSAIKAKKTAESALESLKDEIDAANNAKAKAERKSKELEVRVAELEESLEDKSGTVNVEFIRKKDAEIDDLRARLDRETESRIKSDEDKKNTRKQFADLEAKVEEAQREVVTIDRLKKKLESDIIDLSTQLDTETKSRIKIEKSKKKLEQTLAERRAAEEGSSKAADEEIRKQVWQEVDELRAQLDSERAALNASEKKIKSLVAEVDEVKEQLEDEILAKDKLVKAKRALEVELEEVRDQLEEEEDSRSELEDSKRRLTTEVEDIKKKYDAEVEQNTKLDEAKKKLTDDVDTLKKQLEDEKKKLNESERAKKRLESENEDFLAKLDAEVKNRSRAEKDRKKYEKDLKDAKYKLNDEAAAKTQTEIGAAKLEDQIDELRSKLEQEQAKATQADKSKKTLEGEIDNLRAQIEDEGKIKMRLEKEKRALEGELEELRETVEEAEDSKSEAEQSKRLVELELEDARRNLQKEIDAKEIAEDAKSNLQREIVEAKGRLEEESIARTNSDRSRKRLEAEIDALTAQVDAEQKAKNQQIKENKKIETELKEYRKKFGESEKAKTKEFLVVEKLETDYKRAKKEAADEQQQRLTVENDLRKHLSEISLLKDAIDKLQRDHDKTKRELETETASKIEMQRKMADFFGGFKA
Procedure: (§2) Micropipette aspiration was used for cortical tension and creep response measurements. Confocal imaging was performed on a Zeiss 510 Meta with a 63× (numerical aperture [NA] 1.4) objective (Carl Zeiss, Jena, Germany). Epifluorescence and TIRF imaging was performed in a 22° C. temperature controlled room with an Olympus IX81 microscope using a 40× (NA 1.3) or 60× (NA 1.49) objective and a 1.4× optovar (Olympus, Center Valley, Pa.), as previously described. Image analysis was performed with ImageJ (rsb.info.nih.gov/ij).
(§3) Imaging conditions during primary screen are described above. All other image analysis was performed as previously described (Kee Y S, et al., 2012). Cells were transferred from Petri dishes (with 0.1% DMSO incubation in growth media of 4 hrs) to imaging chambers and allowed to adhere for 20 min in growth media with 0.1% DMSO. After the cells adhered, the growth media was replaced with 2-(N-morpholino)ethanesulfonic acid (MES) starvation buffer (50 mM MES, pH 6.8, 2 mM MgCl2, 0.2 mM CaCl2) with 0.1% DMS. Confocal imaging was performed on aZeiss 510 Meta with a 63× (numerical aperture [NA] 1.4) objective (Carl Zeiss, Jena, Germany). Epifluorescence and TIR imaging was performed in a 22° C. temperature controlled room with an Olympus IX81 microscope using a 40× (NA 1.3) or 60× (NA […]) objective and a 1.4× optovar (Olympus, Center Valley, Pa.), as previously described. Image analysis was performed with ImageJ (rsb.info.nih.gov/ij). Many data sets were independently analyzed by multiple investigators.

myosin II [5] = molecular target: T3, myosin II (Dictyostelium discoideum, UniProt P08799, T1823D/T1833D/T2029D); assay: as above; assay type: cell-based; settings: myoII null cells, 500 nM, 10 minutes post-treatment
T3 construct: expressed in transfected cells; host or cells: Dictyostelium discoideum myoII null cells rescued with GFP-myosin II
T3 sequence (P08799 whole entry T1823D/T1833D/T2029D): as the sequence (P08799 whole entry T1823A/T1833A/T2029A) above, with A1823D, A1833D, A2029D counted along it
Procedure: as §2, §3

ASPC-1 cells [6] = assay: Micropipette aspiration creep test; assay type: cell-based, human; settings: 500 nM, 1 hr, 0.25 nN/μm^2
Procedure: (§4) The instrumental and experimental setups have been previously described (Effler J C, et al., 2006; Kee Y-S, et al., 2013). Micropipette aspiration assays were all carried out in growth media with 0.1% DMSO. For cortical tension measurements of Dictyostelium cells, pressure was applied to the cell cortex with a micropipette (2-3 m radius, Rp) to the equilibrium pressure (ΔP) where the length of the cell inside the pipette (Lp) was equal to Rp. The effective cortical tension (Teff) was calculated by applying the Young-Laplace equation: ΔP=2Teff(1/Rp-1/Rc), where Rc is the radius of the cell and ΔP is the equilibrium pressure when Lp=Rp (Derganc J, et al., 2000; Octtaviani E, et al., 2006). For creep tests on mammalian strains, a constant aspiration stress was applied over 60 s. The micropipette radius was 3.5-4.5 m. For quantification, the Lp/Rp ratio values was measured every two seconds and plotted as a function of time. A10.7 and HEK293 cells could only be aspirated at a low pressure range (0.15 nN/μm^2), while HPDE, ASPC-1, and HL-60 cells could be aspirated at higher pressure ranges (0.25 nN/μm^2) because they were stiffer.

HEK293 cells = assay: Micropipette aspiration creep test; assay type: cell-based, human; settings: 500 nM, 1 hr, 0.15 nN/μm^2
Procedure: as §4

ASPC-1 cells [7] = assay: Matrigel invasion assay; assay type: cell-based, human; settings: transwells with 2 mg/ml Matrigel
Procedure: Cells were treated as in migration assay, but plated in transwells containing 2 mg/ml Matrigel (BD Biosciences).

A10.7 cells = assay: Micropipette aspiration mechanics; assay type: cell-based, human; settings: PDAC A10.7 cells
Procedure: as §4

Compound: CC(=O)c1ccc(O)cc1 [4-HAP, 4-hydroxyacetophenone]
- in vitro migration (ASPC-1 cells [1]): dose-dependent decrease
- myosin IIA phosphorylation (phosphor-Ser1943) [2]: little effect on myosin IIA phosphorylation
- detectability of actin flow (ASPC-1 cells [3]): undetectable levels of actin flow
- reduction in retrograde actin flow velocity over untreated controls (ASPC-1 cells [3]; cells in which flow could be measured): 50%
- assembled myosin IIB (myosin IIB; HEK293 cells, 500 nM, 1 hr): increases in assembled myosin IIB and IIC
- assembled myosin IIB (myosin IIB; HPDE cells): showed a shift in assembly
- filament formation, GFP-3XAla myosin (myosin II [4]): increasing in filament length and intensity
- filament formation, GFP-3XAsp myosin (myosin II [5]): generating more short filaments
- deformability in creep test (ASPC-1 cells [6]): stiffens ASPC-1 cells, shifting them towards HPDE-like mechanics
- deformability in creep test (HEK293 cells): stiffens the soft HEK293 cells
- in vitro invasion (ASPC-1 cells [7]): dose-dependent decrease
- cortical tension (A10.7 cells): decreases the cortical tension
